In US10087156B2, “Methods and compositions related to retinoid receptor-selective pathway” (Sanford Burnham Prebys Medical Discovery Institute, priority 2010, dated 2018):

Key:
COX-1 = biological target: T1, COX-1 (Ovis aries, UniProt P05979); test: COX activity assay; format: biochemical
T1 construct: purchased Cayman Chemical 700100
Procedure: (§1) COX Fluorescent Activity Assay Kit (700200), COX Fluorescent Inhibitor Screening Assay Kit (700100) and Prostaglandin E2 Enzyme Immunoassay (EIA) Kit (514010) were obtained from Cayman Chemical (Ann Arbor, Mich.). COX-1 and COX-2 activity assay were performed according to the manufacturer's protocol.

COX-2 = biological target: T2, COX-2 (Homo sapiens, UniProt P35354); test: COX activity assay; format: biochemical
T2 construct: purchased Cayman Chemical 700100
T2 sequence (P35354 18-604): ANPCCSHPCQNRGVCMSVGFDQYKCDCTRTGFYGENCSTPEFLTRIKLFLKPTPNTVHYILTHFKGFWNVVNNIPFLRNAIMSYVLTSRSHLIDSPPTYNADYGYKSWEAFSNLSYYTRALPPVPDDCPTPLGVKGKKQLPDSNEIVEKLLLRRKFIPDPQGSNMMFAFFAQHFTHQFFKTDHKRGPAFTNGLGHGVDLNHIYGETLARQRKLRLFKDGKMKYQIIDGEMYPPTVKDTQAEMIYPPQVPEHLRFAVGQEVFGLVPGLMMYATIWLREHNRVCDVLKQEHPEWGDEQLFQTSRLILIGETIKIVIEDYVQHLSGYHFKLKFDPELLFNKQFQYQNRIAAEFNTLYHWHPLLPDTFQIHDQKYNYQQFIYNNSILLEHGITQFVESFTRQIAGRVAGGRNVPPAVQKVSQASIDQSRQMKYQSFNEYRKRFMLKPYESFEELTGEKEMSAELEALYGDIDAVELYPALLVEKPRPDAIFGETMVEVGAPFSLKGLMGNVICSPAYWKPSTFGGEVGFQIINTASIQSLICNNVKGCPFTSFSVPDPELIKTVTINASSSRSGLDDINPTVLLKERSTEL
Procedure: as §1

RXRα LBD = RXRα LBD (Homo sapiens, UniProt P19793); test: 19F NMR binding assay; settings: 100 μM compound, 10 μM RXRα LBD
Chain of RXRα LBD (P19793 227-458 limits assumed): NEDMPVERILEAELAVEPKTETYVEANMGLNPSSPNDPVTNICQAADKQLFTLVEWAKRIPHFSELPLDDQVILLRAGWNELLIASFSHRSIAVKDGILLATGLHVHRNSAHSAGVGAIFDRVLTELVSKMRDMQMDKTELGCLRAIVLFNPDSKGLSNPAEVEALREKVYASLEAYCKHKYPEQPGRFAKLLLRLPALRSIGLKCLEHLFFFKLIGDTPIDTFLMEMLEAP

RXRα = biological target: T3, RXRα (Homo sapiens, UniProt P19793); test: HPLC analysis of sulindac sulfide binding to receptor protein in cells; settings: HEK293T cells stably expressing TAP-tagged receptor, 100 μM, 3 hr
T3 construct: expressed in transfected cells
T3 sequence (P19793 whole entry): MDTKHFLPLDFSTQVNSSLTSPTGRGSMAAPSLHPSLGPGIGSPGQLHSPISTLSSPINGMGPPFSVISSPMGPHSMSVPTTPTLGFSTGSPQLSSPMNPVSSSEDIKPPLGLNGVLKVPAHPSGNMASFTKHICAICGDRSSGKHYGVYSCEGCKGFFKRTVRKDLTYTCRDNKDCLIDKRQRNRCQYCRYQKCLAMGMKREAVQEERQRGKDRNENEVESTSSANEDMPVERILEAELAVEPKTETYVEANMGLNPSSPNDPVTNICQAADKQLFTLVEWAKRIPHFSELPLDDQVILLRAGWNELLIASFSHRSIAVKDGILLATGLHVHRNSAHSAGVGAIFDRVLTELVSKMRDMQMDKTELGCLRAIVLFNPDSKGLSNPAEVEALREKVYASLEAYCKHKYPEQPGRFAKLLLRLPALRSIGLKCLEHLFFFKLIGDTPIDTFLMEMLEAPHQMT
Procedure: (§2) Competitive ligand-binding assays (FIG. 1A) and HPLC analysis of Sulindac binding to RXRα, Nur77, or RARβ in HEK293T cells (FIG. 1B) were performed. RXRα LBD protein was incubated with [^3H]9-cis-RA in the presence or absence of Sulindac or unlabeled 9-cis-RA. Bound [^3H]9-cis-RA was quantitated by liquid scintillation counting (FIG. 1A). HEK293T cells stably expressing RXRαfused to a C-terminal TAP tag (Stratagene, La Jolla, Calif.) were treated with or without 100 μM sulindac sulfide for 3 hr. After treatment, cells were purified and analyzed by HPLC for the presence of sulindac sulfide. A standard solution of sulindac sulfide was used to obtain the calibration curve. Characteristic peak spectrum and retention time was used for identification, and peak areas at max used for quantification were calculated (FIGS. 1B and 10).
(§3) Expression vector containing receptor fused to C-terminal TAP fusion (Stratagene, La Jolla, Calif.) was transfected into HEK293 cells using FuGene 6 transfection reagent (Roche, Basel, Switzerland). The cells were maintained in exponential growth in complete medium, DMEM (Mediatech Inc., Herndon, Va.) supplemented with 10% calf serum (SCS, Hyclone Logan, Utah), 2 mM glutamine, penicillin (100 U/ml) and streptomycin (100 μg/ml). At two days post-transfection cells were switched into medium containing […] G418 until 20 days post-transfection, when dishes were scored for drug-resistant colonies. Expression of RXRα fusion protein was determined by immunoblotting. […] A standard solution of sulindac sulfide was used to obtain the calibration curve.

Nur77 = biological target: T4, Nur77 (Homo sapiens, UniProt P22736); test: as above; settings: HEK293T cells, 100 μM, 3 hr
T4 construct: expressed in transfected cells
T4 sequence (P22736 whole entry, species assumed): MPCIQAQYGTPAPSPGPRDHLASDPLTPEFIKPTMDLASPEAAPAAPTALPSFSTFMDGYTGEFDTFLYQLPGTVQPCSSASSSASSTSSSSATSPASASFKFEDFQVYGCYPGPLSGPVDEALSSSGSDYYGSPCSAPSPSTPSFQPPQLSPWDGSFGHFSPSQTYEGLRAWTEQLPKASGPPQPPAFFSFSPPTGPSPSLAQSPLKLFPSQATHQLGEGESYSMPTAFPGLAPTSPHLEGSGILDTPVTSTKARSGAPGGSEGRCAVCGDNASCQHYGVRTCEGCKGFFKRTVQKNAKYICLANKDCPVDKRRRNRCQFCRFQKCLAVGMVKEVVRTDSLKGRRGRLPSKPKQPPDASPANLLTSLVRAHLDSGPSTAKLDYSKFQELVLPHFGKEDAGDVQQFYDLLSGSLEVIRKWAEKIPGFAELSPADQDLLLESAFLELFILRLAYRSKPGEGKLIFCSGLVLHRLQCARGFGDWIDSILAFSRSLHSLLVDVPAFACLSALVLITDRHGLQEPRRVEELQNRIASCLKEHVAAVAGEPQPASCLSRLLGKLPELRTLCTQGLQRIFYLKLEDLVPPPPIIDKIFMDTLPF
Procedure: as §2, §3

RARβ = biological target: T5, RARβ (Homo sapiens, UniProt P10826); test: as above; settings: HEK293T cells, 100 μM, 3 hr
T5 construct: expressed in transfected cells
T5 sequence (P10826 whole entry, species assumed): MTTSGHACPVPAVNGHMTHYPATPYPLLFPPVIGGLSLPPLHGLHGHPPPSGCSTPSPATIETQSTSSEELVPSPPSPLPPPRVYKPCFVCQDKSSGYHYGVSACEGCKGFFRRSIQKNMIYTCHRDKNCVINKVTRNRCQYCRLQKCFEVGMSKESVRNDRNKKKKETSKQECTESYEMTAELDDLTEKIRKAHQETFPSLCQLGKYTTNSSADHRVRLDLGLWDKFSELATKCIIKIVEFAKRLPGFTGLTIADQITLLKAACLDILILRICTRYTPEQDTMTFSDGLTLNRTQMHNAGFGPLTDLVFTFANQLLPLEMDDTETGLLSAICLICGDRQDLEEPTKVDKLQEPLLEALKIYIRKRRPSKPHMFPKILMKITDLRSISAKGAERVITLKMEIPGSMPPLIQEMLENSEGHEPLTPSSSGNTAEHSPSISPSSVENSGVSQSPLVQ
Procedure: as §2, §3

RXRα/TRα heterodimers = biological target: T6, RXRα/TRα heterodimers (Homo sapiens, UniProt P19793); test: TREpal2-tk-CAT reporter assay in CV-1 cells; format: cell-based; settings: T3 10^−7 M
T6 construct: expressed in transfected cells; host or cells: CV-1 green monkey kidney cells
T6 sequence (P19793 whole entry): as the sequence (P19793 whole entry) above
T6 sequence (P10827 1-410 isoform P10827-2 partner): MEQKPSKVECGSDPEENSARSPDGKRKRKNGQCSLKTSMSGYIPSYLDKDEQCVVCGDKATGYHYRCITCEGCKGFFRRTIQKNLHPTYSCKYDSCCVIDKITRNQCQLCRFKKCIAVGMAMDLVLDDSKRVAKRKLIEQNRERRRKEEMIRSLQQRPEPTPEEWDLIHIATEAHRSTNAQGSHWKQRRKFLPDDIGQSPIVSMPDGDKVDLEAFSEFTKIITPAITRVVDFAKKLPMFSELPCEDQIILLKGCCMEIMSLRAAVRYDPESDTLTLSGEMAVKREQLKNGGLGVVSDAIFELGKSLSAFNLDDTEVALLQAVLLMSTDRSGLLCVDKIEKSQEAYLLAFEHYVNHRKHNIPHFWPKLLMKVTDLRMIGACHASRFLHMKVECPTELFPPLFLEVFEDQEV
Procedure: Receptor expression vectors and a reporter gene (TREpal2-tk-CAT for RXRα/TRα heterodimers (FIG. 9C), and DR1 tk-CAT for RXRα/PPARγ heterodimer (FIG. 9B)) were transiently transfected into CV-1 cells. Cells were treated with or without ligands (ciglitazone, 10^−6 M; T3, 10^−7 M) in the presence or absence of Sulindac. CAT activity was determined.
(§4) Cells (1×10^5 cells/well) seeded in 24-well plates were transiently transfected using a modified calcium phosphate precipitation procedure as described (Kolluri, S. K. et al., Proc Natl Acad Sci USA 102 (7), 2525-2530 (2005); Cao, X., et al., Mol Cell Biol 24(22), 9705-9725 (2004)).

[1] = biological target: T7, RXRα homodimer and heterodimer (Homo sapiens, UniProt P19793); test: (TREpal)2-tk-CAT and βRARE-tk-CAT reporter assays in CV-1 cells; format: cell-based; settings: SR11237 10^−6 M
T7 construct: expressed in transfected cells; host or cells: CV-1 green monkey kidney cells
T7 sequence (P19793 whole entry, one chain of several): as the sequence (P19793 whole entry) above
Procedure: Nur77 and/or RXRα were transiently transfected into CV-1 cells. Cells were treated with or without SR11237 (10^−6 M), a RXR-selective agonist, in the presence or absence of Sulindac. (TREpal)2-tk-CAT (Zhang et al., Nature 358, 587-591 (1992a)) (FIG. 1E) and βRARE-tk-CAT (Zhang et al., Nature 355, 441-446 (1992b)) (FIG. 1F) CAT activity were determined.
as §4

c-FLIP = c-FLIP expression by immunoblotting; format: cell-based; settings: HepG2, A549 and SW480 cells, 6 hr
Procedure: Cells treated with TNFα and/or Sulindac for 6 hr were analyzed by immunoblotting (FIG. 6I). The expression of c-FLIP, a downstream target gene of AKT signaling, which acts as a potent inhibitor of the extrinsic apoptotic pathway by inhibiting caspase-8 activation, was examined. […] Thus, Sulindac may induce apoptosis by suppressing the inducing effect of TNFα on c-FLIP expression.

AKT = test: Basal AKT activation by immunoblotting; format: cell-based; settings: various cancer cell lines incl. SW480 and HCT116, 100 μM, 1 hr
Procedure: HepG2, SW480, RAW264.7, HCT116, LNCaP, PC3, ZR-75-1, and HaCat cells were starved overnight and treated with Sulindac (100 μM) for 1 hr and analyzed for AKT activation by immunoblotting (FIG. 3A). HepG2 cells were also transfected with RXRα siRNA for 48 hours, treated with Sulindac (100 μM) for 1 hour, and analyzed for AKT activation and RXRα expression by immunoblotting (FIG. 3B).
For immunoblotting, cell lysates were boiled in SDS sample buffer, resolved by SDS-polyacrylamide gel electrophoresis, and transferred to nitrocellulose. After transfer, the membranes were blocked in 5% milk in TBST (10 mM Tris-HCl, pH. 8.0, 150 mM NaCl, 0.05% Tween 20) containing antibody. The membranes were then washed three times with TBST, then incubated for 1 hr at room temperature in 5% milk in TBST containing horseradish peroxide-linked anti-immunoglobulin.

T1 sequence (P05979 25-600): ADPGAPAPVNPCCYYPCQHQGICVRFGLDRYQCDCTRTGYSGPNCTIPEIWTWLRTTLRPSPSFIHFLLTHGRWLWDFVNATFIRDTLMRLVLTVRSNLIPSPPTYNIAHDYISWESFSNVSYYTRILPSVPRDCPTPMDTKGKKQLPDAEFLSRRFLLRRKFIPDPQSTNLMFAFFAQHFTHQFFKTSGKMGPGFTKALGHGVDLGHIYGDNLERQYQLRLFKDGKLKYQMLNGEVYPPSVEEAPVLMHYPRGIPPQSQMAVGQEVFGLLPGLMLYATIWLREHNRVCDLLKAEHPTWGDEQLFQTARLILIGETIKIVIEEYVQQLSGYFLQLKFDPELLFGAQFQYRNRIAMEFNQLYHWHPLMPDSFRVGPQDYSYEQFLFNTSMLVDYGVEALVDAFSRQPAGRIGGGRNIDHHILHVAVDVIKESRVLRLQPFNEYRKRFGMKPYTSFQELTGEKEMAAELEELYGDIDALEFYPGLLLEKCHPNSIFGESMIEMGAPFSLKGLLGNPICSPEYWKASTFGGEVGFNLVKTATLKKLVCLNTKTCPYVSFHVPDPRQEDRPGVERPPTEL

SMILES | inhibition of COX-1 activity (COX-1) | inhibition of COX-2 activity (COX-2) | binding to RXRα by 19F NMR (RXRα LBD) | binding to RXRα in cells by HPLC (RXRα) | binding to Nur77 in cells by HPLC (Nur77) | binding to RAR in cells by HPLC (RARβ) | transactivation of RXR/TR heterodimers (CAT activity) (RXRα/TRα heterodimers) | RXRα homodimer and heterodimer transactivation (CAT activity) [1] | TNFα induction of c-FLIP (c-FLIPS and c-FLIPL) (c-FLIP) | inhibition of basal AKT activation (AKT)
CC1=C(CC(=O)O)c2cc(F)ccc2/C1=C\c1ccc(C(C)C)cc1 [K-80003, (Z)-2-(3-(4-Iso-propylbenzylidene)-6-fluoro-2-methyl-3H-inden-1-yl)acetic acid] | no detectable inhibition | no detectable inhibition | confirmed |  |  |  |  |  |  | 
CSc1ccc(/C=C2/C(C)=C(CC(=O)O)c3cc(F)ccc32)cc1 [Sulindac, (Z)-2-(3-(4-(Methylthio)benzylidene)-6-fluoro-2-methyl-3H-inden-1-yl)acetic acid] |  |  |  | direct binding | not other nuclear receptors such as RAR and Nur77 | not other nuclear receptors such as RAR and Nur77 | not RXR/TR heterodimers | inhibited RXRα homodimer and heterodimer transactivation | inhibited | Significant inhibition
